From a melting point compilation (Tetko et al.) come the findings set out here.

Molecules are shown by their SMILES.

As to `CC(C)CC1=C/C(=C/c2ccc(-c3cccc([N+](=O)[O-])c3)o2)C(=O)O1`, the melting point (commonly the temperature of the solid-liquid transition) turned out to be 164 °C.
As for `Fc1cc(Br)c(I)c(Br)c1`, the figure is 134 to 137 °C; as for `CCOC(=O)c1ccc(OC)cn1`, 39 °C; as for `CN1CSC(=S)N(C)C1`, 106 °C.
As for `CC12CCC(C(O)=CC1=O)C2(C)C` (stereo not drawn), the figure is 221 °C.
As for `Cc1cc(Br)c(N)c(C(=O)O)c1`, the figure is 204 °C; as for `FC(F)(F)CBr`, -93.9 °C.
Molecule `CC(=C(C#N)C#N)c1ccc(Cl)cc1` displayed a melting point of 93 °C.
The figure for `COC(=O)c1coc(CCl)n1` is 74 to 76 °C.
The figure for `O=S(=O)(Cl)Cc1cccc(F)c1` is 39 to 41 °C.
As for `CC[C@@]1(O)CC[C@H]2[C@@H]3CCC4CC(OC(C)=O)CC[C@]4(C)[C@H]3CC[C@@]21C` (stereo partly drawn), the figure is 164 to 165 °C; as for `CCOC(OCC)c1cccc2c(Br)ccc([N+](=O)[O-])c12`, 95 °C; as for `COc1cccc(/N=C(\C)c2c(O)c3ccccc3n(-c3ccccc3)c2=O)c1`, 178 to 179 °C.
As for `CCOC(=O)c1ccc(Br)cc1`, the melting point came to 18 °C.
The figure for `C=Cc1c(Cl)cccc1Cl` is 89 °C; for `O=C(Nc1cc(Cl)cc(Cl)c1O)c1c(O)c(Cl)cc(Cl)c1Cl` it is 210 °C; for `Nc1nc(CC(=O)O)cs1` it is 118 °C.
In turn, `O=C(c1ccc(Br)cc1)c1noc(-c2ccc([N+](=O)[O-])cc2)c1S(=O)(=O)c1ccccc1` came in with a melting point of 200 to 202 °C.
As for `Ic1ccc2[nH]ccc2c1`, the figure is 99 °C.
The figure for `OCc1ccc(I)cc1` is 73 °C; for `O=Cc1ccc(Cl)c([N+](=O)[O-])c1` it is 63 °C; for `Cc1c(Br)cc(C(=O)Cl)c(C)c1C` it is 60 to 62 °C.
As for `Cc1cc(C)c(S(=O)(=O)n2cnc([N+](=O)[O-])n2)c(C)c1`, the figure is 132 to 134 °C; as for `Cc1nc(-c2ccccc2)ncc1CO`, 85 to 86 °C.
As for `Cc1ccc([Si](C)(C)c2ccccc2CO)cc1`, the melting point stood at 56 °C.
As for `CCOC(=O)C(F)(F)C(F)(F)F`, the figure is 75.5 °C; as for `OCc1ccc(-c2ccncc2)cc1`, 173 to 176 °C.
The figure for `Brc1cccc(Oc2ccccn2)c1` is 63 to 64 °C; for `COC(=O)c1cc(OCc2cc(COc3cc(C(=O)OC)cc(C(=O)OC)c3)cc(COc3cc(C(=O)OC)cc(C(=O)OC)c3)c2)cc(C(=O)OC)c1` it is 188 °C.
The molecule `BrCCc1ccccc1` gave a melting point of -56 °C.
The figure for `Cc1ccc(Sc2ccc(C(=O)c3ccccc3)cc2)cc1` is 73 to 87 °C.
As for `NC(=O)Nc1ccccn1`, the figure is 173 to 175 °C; as for `O=C(NC(Cc1ccccc1)C(=O)CCl)OCc1ccccc1` (stereo not drawn), 107 to 108 °C.
`COc1cc([N+](=O)[O-])ccc1O` registered a melting point of 99 to 104 °C.
The figure for `N#CC1(c2ccccc2)CCC(=O)CC1` is 115 °C.
The figure for `CCOC(=O)Oc1c(OC)cc(C(=O)OC2CC3CN4CCc5c([nH]c6cc(OC)ccc56)C4CC3C(C(=O)OC)C2OC)cc1OC` (stereo not drawn) is 177 °C; for `CCCCCC=CC(=O)O` it is 5 to 6 °C; for `CC(C)CCBr` it is -112 °C.
The figure for `OCC(F)(F)C(F)(F)C(F)(F)C(F)(F)C(F)(F)C(F)(F)C(F)(F)F` is 43 to 47 °C.
`Cc1ccc(F)c([N+](=O)[O-])c1` registered a melting point of 28 to 30 °C.
On to `CC(C)(C)c1cc(N)cc(C(C)(C)C)c1`, for which the melting point stood at 56 °C.
As for `NNc1ccc(Cl)nn1`, the figure is 137 °C; as for `CCOC(=O)c1c(-c2cccs2)csc1N`, 85 to 87 °C; as for `COc1cccc2sc(N)nc12`, 156 °C.
Molecule `O=C(O)c1nc(O)n(-c2ccccc2)n1` returned a melting point of 180 °C.
As for `CCCC(=O)c1ccc(N)cc1`, the figure is 94 to 95 °C; as for `O=[N+]([O-])c1c(O)ncnc1O`, 300 °C.
The figure for `N#Cc1cccc(Cn2cncn2)c1` is 91 to 92 °C; for `COc1cc(C(=O)O)cc(OC(C)=O)c1OC` it is 151 °C; for `CC(=O)Nc1ccccc1CCNCCc1ccccc1NC(C)=O` it is 110 °C.
The figure for `CCCCCCC(=O)CCCC` is 2 °C.
Turning to `CCCCCCCCCCCCCC=CC(O)C(CO)NC(C)=O` (stereo not drawn), the melting point is 93 to 96 °C.
As for `COc1ccc(CC(=O)O)cc1OCc1ccccc1`, the figure is 126 °C; as for `CC(=O)C=CC1C(C)=CCCC1(C)C` (stereo not drawn), less than 25 °C.
For the molecule `CC1=NC(=Cc2cccc3ccccc23)C(=O)O1`, the melting point is 244 °C.
The figure for `CCOc1ccccc1OS(=O)(=O)NC(=O)Nc1nc(OC)cc(OC)n1` is 150 °C.
The figure for `O=C(O)CCc1cc(I)c(Oc2ccc(O)c(I)c2)c(I)c1` is 200 °C.
The figure for `CC1=C(Cl)CCP(=O)(c2ccccc2)C1` (stereo not drawn) is 143 °C.
Take `OCc1cc(Cl)ccc1O`: the melting point lay in the range of 90 to 91 °C.
The figure for `Brc1cn[nH]c1` is 94.5 °C; for `CC1=CCCC1C` (stereo not drawn) it is -118 °C.
The figure for `CC(=O)NC1CCCCC(NC(C)=O)CCCC1` (stereo not drawn) is 296 to 297 °C; for `CNC(=O)COC1CCN(C(=O)OC(C)(C)C)CC1` it is 95 °C; for `Oc1c(Cl)cccc1-c1ccccc1` it is 6 °C.
As for `O=[N+]([O-])c1ccc(-c2ccc([N+](=O)[O-])cc2Cl)cc1`, the figure is 144 to 146 °C; as for `N#Cc1ccc(OCc2ccccc2)cc1`, 97 °C; as for `O=C(O)c1ccc(F)cc1O`, 191 °C.
In turn, `CCc1ccc(O)c(O)c1` came in with a melting point of 39 °C.
Molecule `O=C(Nc1cccnc1Cl)c1ccc(F)cc1` gave a melting point of 140 to 142 °C.
`Cc1cccc(CS(=O)(=O)Cl)c1` came in with a melting point of 48 to 49 °C.
As for `Fc1cccc(F)c1CBr`, the figure is 51 to 55 °C.
The figure for `O=C(c1ccc(Br)cc1)[C@H]1CCCC[C@H]1C(=O)O` (relative stereo) is 171 to 175 °C.
The figure for `Fc1ccc(-c2cc3ccccc3[nH]2)cc1` is 190 to 192 °C; for `COc1cc2c(cc1OC)C(CCc1ccc(Cl)cc1)N(C)CC2` (stereo not drawn) it is 110 °C; for `CCCCOC(=O)c1ccccc1C(=O)OCc1ccccc1` it is 230 °C.
In turn, `O=P(O)(O)CCN(CP(c1ccccc1)c1ccccc1)CP(c1ccccc1)c1ccccc1` gave a melting point of 146 to 148 °C.
The figure for `CC(=O)NCCNc1cc(=O)oc2ccccc12` is 262 °C; for `CCCCCCCCCCCCc1ccccc1` it is 3 °C; for `CC(=O)c1occc1O` it is 100 °C.
As for `O=C1CN=C(c2ccccc2F)c2cc(Cl)ccc2N1CC1CC1`, the figure is 118 °C; as for `O=C(CCl)Nc1cccc(Cl)c1Cl`, 104 to 106 °C.
`Fc1c(F)c(F)c(I)c(I)c1F` came in with a melting point of 49 to 50 °C.
The figure for `COc1ccc(-c2noc(C)c2C(=O)Cl)cc1` is 79 to 81 °C; for `CC/C=C/C(=O)O` it is 9 °C; for `NC(=S)c1ccc2c(c1)OCO2` it is 183 to 186 °C.
Take `COc1cc(OC(C)=O)c2c(=O)c(OC(C)=O)c(-c3ccc(OCc4ccccc4)c(OC(C)=O)c3)oc2c1`: the melting point was 182 to 192 °C.
As for `Nc1c(C(=O)O)sc2ncccc12`, the figure is 202 to 204 °C; as for `CCOc1ccc(F)cc1`, -8.5 °C.
The figure for `COc1ccc(N)c(C(=O)O)c1` is 151 °C; for `CCc1nc(N)nc(Cl)c1C` it is 138 to 140 °C; for `OCC1CCCCC1` it is -43 °C.
As for `CO[C@@H](C)C(N)=O`, the figure is 80 to 84 °C; as for `C1CN(SSN2CCOCC2)CCO1`, 124 °C.
Regarding `COc1ccc(C(O)(c2cc(OC)c(OC)c(OC)c2)c2ccc(OC)cc2OC)c(OC)c1`, the melting point worked out at 109 °C.
The figure for `CC(=O)OC1CCC2(C)C(CCC3C4=C(CCC32)C(C)(C#Cc2ccccc2)CC4)C1` (stereo not drawn) is 135 to 136 °C.
The figure for `Cc1c(CO)cnn1-c1ccccc1` is 88 to 89 °C.
The figure for `COC(=O)c1cccc(Cl)c1Cl` is 33 to 38 °C; for `COC(=O)c1ccccc1C#N` it is 50 °C.
Molecule `CC(=O)C1=CCCCC1` registered a melting point of 73 °C.
As for `CCCCCCCCCCCCCC#N`, the figure is 19 °C; as for `CN(C)c1ccc(N=C(C#N)c2ccc(C(C#N)=Nc3ccc(N(C)C)cc3)cc2)cc1`, 240 °C.
As for `CN(C)C(=O)[C@@H](O)[C@H](O)C(=O)N(C)C`, the figure is 186 to 188 °C; as for `CC(=O)C1(O)CCC2C3CC(C)C4=CC(=O)C=CC4(C)C3(F)C(O)CC21C` (stereo not drawn), 297 °C; as for `COC(=O)c1c(N)sc2c1CCCC2`, 128 °C.
As for `Brc1ccc(-c2ccccn2)s1`, the figure is 87 to 89 °C; as for `O=Cc1cc(-c2cccs2)on1`, 66 °C.
In turn, `CCCCOc1ccc(N)c([N+](=O)[O-])c1` showed a melting point of 64 to 66 °C.
In turn, `CCCCCCCC(C)CC` (stereo not drawn) returned a melting point of -92.9 °C.
The figure for `COC(=O)C1=C(C)NC(C)=C(C(=O)OC)C1c1ccco1` is 186 °C; for `NS(=O)(=O)c1c(F)cccc1F` it is 190 °C; for `CC(NC(=O)COC(=O)c1ccccc1)C(N)=O` (stereo not drawn) it is 202 °C.
As for `N#CCSc1ccc(Cl)cc1`, the figure is 80 °C.
As for `CCCCCCCCC(O)CCCCCCCC`, the figure is 61 °C.
